Biological target: T1, human M4 receptor (Homo sapiens, UniProt P08173)
T1 construct: expressed in transfected cells; host or cells: CHO cells
T1 sequence (P08173 1-479): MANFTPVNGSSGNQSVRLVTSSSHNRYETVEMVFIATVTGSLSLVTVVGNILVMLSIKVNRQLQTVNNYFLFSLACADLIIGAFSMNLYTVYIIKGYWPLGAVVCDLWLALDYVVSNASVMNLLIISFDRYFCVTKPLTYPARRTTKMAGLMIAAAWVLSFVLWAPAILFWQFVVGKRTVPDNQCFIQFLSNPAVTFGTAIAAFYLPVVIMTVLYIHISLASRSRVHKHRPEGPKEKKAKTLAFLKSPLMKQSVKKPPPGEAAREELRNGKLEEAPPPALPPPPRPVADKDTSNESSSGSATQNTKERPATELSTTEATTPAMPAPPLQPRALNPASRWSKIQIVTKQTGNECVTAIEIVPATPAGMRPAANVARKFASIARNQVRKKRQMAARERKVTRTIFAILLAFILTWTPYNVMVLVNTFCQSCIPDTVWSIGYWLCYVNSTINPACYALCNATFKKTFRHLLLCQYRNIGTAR
Assay: Radioligand ([3H]N-methylscopolamine) binding assay, membranes from CHO cells expressing human M4 receptor
Conditions: Ki against human M4 receptor; membranes from CHO cells; tritiated N-methylscopolamine 1.5 nM; read-out: K
Protocol: Binding affinity (Ki) for the compounds was measured by inhibition of radioligand binding to membranes from CHO cells expressing human M4 receptor. Membranes were prepared by nitrogen cavitation and differential centrifugation as previously described (Hoare et al., Mol. Pharmacol. 2003 March; 63(3): 751-65). The radioligand employed was tritiated N-methylscopolamine, used at a concentration of 1.5 nM. A dose-response of twelve concentrations of compound was used, ranging from […]. The assay buffer was 50 mM HEPES, 100 mM NaCl, 5 mM MgCl2, 1 mM ethylenediaminetetraacetic acid, pH-adjusted to pH 7.4. Membranes, radioligand and compound were incubated together for 90 minutes at 37° C., in a total volume of 150 μL in a 96-well plate. Receptor-bound radioligand was then collected by harvesting the assay over glass fiber filters pretreated with polyethylenimine to trap the cell membranes, using rapid vacuum filtration. Harvesting and radioactivity counting was conducted as previously described (see, e.g., Hoare et al., Mol. Pharmacol. 2003 63(3):751-65); Erratum at Mol. Pharmacol. 2005 July; 68(1): 260).

SMILES | Ki
O=C(OC1CC2(C1)CN(Cc1ccccc1)C2)N1CCN(c2ccc(OC(F)(F)F)cc2)CC1 [Compound 108, 2-benzyl-2-azaspiro[3.3]heptan-6-yl 4-[4-(trifluoromethoxy)phenyl]piper-azine-1-carboxylate] | 100 to 1000 nM
O=C(OC1CC2(C1)CN(Cc1ccccc1)C2)N1C2CC1CN(c1cnc(C(F)(F)F)cn1)C2 [Compound 110, 2-benzyl-2-azaspiro[3.3]heptan-6-yl 3-[5-(trifluoromethyl)pyrazin-2-yl]-3,6-diazabicyclo[3.1.1]heptane-6-carboxylate] | 100 to 1000 nM
N#Cc1cnc(N2CC3CC(C2)N3C(=O)OC2CC3(C2)CN(Cc2ccccc2)C3)cn1 [Compound 111, 2-benzyl-2-azaspiro[3.3]heptan-6-yl 3-(5-cyanopyrazin-2-yl)-3,6-diazabicyclo[3.1.1]heptane-6-carboxylate] | 100 to 1000 nM
C[C@H]1CN(C(=O)OC2CC3(C2)CN(Cc2ccccc2)C3)CCN1c1ncc(C#N)cn1 [Compound 119, 2-benzyl-2-azaspiro[3.3]heptan-6-yl (3S)-4-(5-cyanopyrimidin-2-yl)-3-methylpiperazine-1-carboxylate] | 100 to 1000 nM
O=C(OC1CC2(C1)CN(Cc1ccccc1)C2)N1CCN(c2ccc(C(F)(F)F)cn2)CC1 [Compound 121, 2-benzyl-2-azaspiro[3.3]heptan-6-yl 4-[5-(trifluoromethyl)pyridin-2-yl]piperazine-1-carboxylate] | 100 to 1000 nM
O=C(OC1CC2(C1)CN(Cc1ccccc1)C2)N1CCN(c2ccc(C(F)(F)F)cc2)CC1 [Compound 125, 2-benzyl-2-azaspiro[3.3]heptan-6-yl 4-[4-(trifluoromethyl)phenyl]pipera-zine-1-carboxylate] | 100 to 1000 nM
N#Cc1cc(C(F)(F)F)ccc1N1CCN(C(=O)OC2CC3(C2)CN(Cc2ccccc2)C3)CC1 [Compound 126, 2-benzyl-2-azaspiro[3.3]heptan-6-yl 4-[2-cyano-4-(trifluoromethyl)phenyl]pipera-zine-1-carboxylate] | 100 to 1000 nM
C[C@@H]1CN(c2ncc(C#N)cn2)[C@@H](C)CN1C(=O)OC1CC2(C1)CN(Cc1ccccc1)C2 [Compound 138, 2-benzyl-2-azaspiro[3.3]heptan-6-yl (2R,5S)-4-(5-cyanopyrimidin-2-yl)-2,5-dimethylpiperazine-1-carboxylate] | 10 to 100 nM
C[C@@H]1CN(c2cnc(C(F)(F)F)cn2)C[C@@H](C)N1C(=O)OC1CC2(C1)CN(Cc1ccccc1)C2 [Compound 142, 2-benzyl-2-azaspiro[3.3]heptan-6-yl (2R,6R)-2,6-dimethyl-4-[5-(trifluoromethyl)pyrazin-2-yl]piperazine-1-carboxylate] | 10 to 100 nM
C[C@@H]1CN(c2cnc(C(F)(F)F)cn2)C[C@@H](C)N1C(=O)OCC1CC2(C1)CN(Cc1ccccc1)C2 [Compound 143, {2-benzyl-2-azaspiro[3.3]heptan-6-yl}methyl (2R,6R)-2,6-dimethyl-4-[5-(trifluoromethyl)pyrazin-2-yl]piperazine-1-carboxylate] | 100 to 1000 nM
C[C@@H]1CN(c2ncc(C(F)(F)F)cn2)C[C@@H](C)N1C(=O)OCC1CC2(C1)CN(Cc1ccccc1)C2 [Compound 144, {2-benzyl-2-azaspiro[3.3]heptan-6-yl}methyl (2R,6R)-2,6-dimethyl-4-[5-(trifluoromethyl)pyrimidin-2-yl]piperazine-1-carboxylate] | 10 to 100 nM
C[C@@H]1CN(c2ncc(C(F)(F)F)cn2)C[C@@H](C)N1C(=O)OC1CC2(C1)CN(CCC(C)(C)C)C2 [Compound 145, 2-(3,3-dimethylbutyl)-2-azaspiro[3.3]heptan-6-yl (2R,6R)-2,6-dimethyl-4-[5-(trifluoromethyl)pyrimidin-2-yl]piperazine-1-carboxylate] | 100 to 1000 nM
C[C@@H]1CN(c2ncc(C(F)(F)F)cn2)C[C@@H](C)N1C(=O)OC1CC2(C1)CN(CC(C)(C)C)C2 [Compound 146, 2-(2,2-dimethylpropyl)-2-azaspiro[3.3]heptan-6-yl (2R,6R)-2,6-dimethyl-4-[5-(trifluoromethyl)pyrimidin-2-yl]piperazine-1-carboxylate] | 100 to 1000 nM
C[C@@H]1CN(c2ncc(C(F)(F)F)cn2)C[C@H](C)N1C(=O)OC1CC2(C1)CN(CCC(C)(C)C)C2 [Compound 149, 2-(3,3-dimethylbutyl)-2-azaspiro[3.3]heptan-6-yl (2R,6S)-2,6-dimethyl-4-[5-(trifluoromethyl)pyrimidin-2-yl]piperaizne-1-carboxylate] | 100 to 1000 nM
C[C@@H]1CN(c2ncc(C(F)(F)F)cn2)C[C@H](C)N1C(=O)OC1CC2(C1)CN(CC1CCCCC1)C2 [Compound 154, 2-(cyclohexylmethyl)-2-azaspiro[3.3]heptan-6-yl (2R,6S)-2,6-dimethyl-4-[5-(trifluoromethyl)pyrimidin-2-yl]piperazine-1-carboxylate] | 10 to 100 nM
C[C@@H]1CN(c2ncc(C(F)(F)F)cn2)C[C@H](C)N1C(=O)OC1CC2(C1)CN(CC1CC3C=CC1C3)C2 (stereo partly drawn) [Compound 155, 2-{bicyclo[2.2.1]hept-5-en-2-ylmethyl}-2-azaspiro[3.3]heptan-6-yl (2R,6S)-2,6-dimethyl-4-[5-(trifluoromethyl)pyrimidin-2-yl]piperazine-1-carboxylate] | 10 to 100 nM
C[C@@H]1CN(c2ncc(F)cn2)C[C@@H](C)N1C(=O)OC1CC2(C1)CN(Cc1ccccc1)C2 [Compound 158, 2-benzyl-2-azaspiro[3.3]heptan-6-yl (2R,6R)-4-(5-fluoropyrimidin 2-yl)-2,6-dimethylpiperazine-1-carboxylate] | 100 to 1000 nM
C[C@@H]1CN(c2ncc(C#N)cn2)C[C@@H](C)N1C(=O)OC1CC2(C1)CN(Cc1ccccc1)C2 [Compound 159, 2-benzyl-2-azaspiro[3.3]heptan-6-yl (2R,6R)-4-(5-cyanopyrimidin-2-yl)-2,6-dimethylpiperazine-1-carboxylate] | 100 to 1000 nM

Other lines, results leading:

Ki | SMILES
< 10 nM | C[C@H]1CN(C(=O)OC2CC3(C2)CN(Cc2ccccc2)C3)CCN1c1ncc(C(F)(F)F)cn1 [Compound 123, 2-benzyl-2-azaspiro[3.3]heptan-6-yl (3S)-3-methyl-4-[5-(trifluoromethyl)pyrimidin-2-yl]piperazine-1-carboxylate]
10 to 100 nM | C[C@@H]1CN(c2ncc(C#N)cn2)C[C@H](C)N1C(=O)OC1CC2(C1)CN(Cc1ccccc1)C2 [Compound 130, 2-Benzyl-2-azaspiro[3.3]heptan-6-yl (2R,6S)-4-(5-cyanopyrimidin-2-yl)-2,6-dimethylpiperazine-1-carboxylate]
< 10 nM | C[C@@H]1CN(c2ncc(C(F)(F)F)cn2)CCN1C(=O)OC1CC2(C1)CN(Cc1ccccc1)C2 [Compound 132, 2-benzyl-2-azaspiro[3.3]heptan-6-yl (2R)-2-methyl-4-[5-(trifluoromethyl)pyrimidin-2-yl]piperazine-1-carboxylate]
10 to 100 nM | C[C@@H]1CN(c2ncc(C(F)(F)F)cn2)CCN1C(=O)OCC1CC2(C1)CN(Cc1ccccc1)C2 [Compound 133, {2-benzyl-2-azaspiro[3.3]heptan-6-yl}methyl (2R)-2-methyl-4-[5-(trifluoromethyl)pyrimidin-2-yl]piperazine-1-carboxylate]
10 to 100 nM | C[C@@H]1CN(c2ncc(C(F)(F)F)cn2)[C@H](C)CN1C(=O)OC1CC2(C1)CN(Cc1ccccc1)C2 [Compound 135, 2-benzyl-2-azaspiro[3.3]heptan-6-yl (2R,5R)-2,5-dimethyl-4-[5-(trifluoromethyl)pyrimidin-2-yl]piperazine-1-carboxylate]
< 10 nM | C[C@@H]1CN(c2ncc(C(F)(F)F)cn2)[C@@H](C)CN1C(=O)OC1CC2(C1)CN(Cc1ccccc1)C2 [Compound 136, 2-Benzyl-2-azaspiro[3.3]heptan-6-yl (2R,5S)-2,5-dimethyl-4-[5-(trifluoromethyl)pyrimidin-2-yl]piperazine-1-carboxylate]
< 10 nM | C[C@@H]1CN(c2ncc(C(F)(F)F)cn2)C[C@@H](C)N1C(=O)OC1CC2(C1)CN(Cc1ccccc1)C2 [Compound 139, 2-Benzyl-2-azaspiro[3.3]heptan-6-yl (2R,6R)-2,6-dimethyl-4-[5-(trifluoromethyl)pyrimidin-2-yl]piperazine-1-carboxylate]
< 10 nM | C[C@@H]1CN(c2ncc(C(F)(F)F)cn2)C[C@H](C)N1C(=O)OC1CC2(C1)CN(CC1CC1(C)C)C2 (stereo partly drawn) [Compound 153, 2-[(2,2-dimethylcyclopropyl)methyl]-2-azaspiro[3.3]heptan-6-yl (2R,6S)-2,6-dimethyl-4-[5-(trifluoromethyl)pyrimidin-2-yl]piperazine-1-carboxylate]
< 10 nM | C[C@@H]1CN(c2ncc(F)cn2)C[C@H](C)N1C(=O)OC1CC2(C1)CN(Cc1ccccc1)C2 [Compound 157, 2-benzyl-2-azaspiro[3.3]heptan-6-yl (2R,6S)-4-(5-fluoropyrimidin-2-yl)-2,6-dimethylpiperazine-1-carboxylate]

Reference: US20230129359A1, “MUSCARINIC RECEPTOR 4 ANTAGONISTS AND METHODS OF USE” (Neurocrine Biosciences, Inc., priority 2020, published 2023)
